SMILES strings stand for the structures. pIC50: −log10 of the molar value.

Data on 24 compounds can be found in patent US6855730B2, “3-methylidenyl-2-indolinone modulators of protein kinase” (Sugen, Inc., priority 1998, dated 2005).

The target in this assay is T1, chimeric receptor containing the EGFR extracellular domain and intracellular HER2 kinase domain (Homo sapiens, UniProt P04626).
T1 construct: fused on or other part: EGFR ectodomain + HER2 intracellular part, ATP-site indolinones: HER2's kinase
T1 sequence (P04626 720-1255 limits assumed, change not shown): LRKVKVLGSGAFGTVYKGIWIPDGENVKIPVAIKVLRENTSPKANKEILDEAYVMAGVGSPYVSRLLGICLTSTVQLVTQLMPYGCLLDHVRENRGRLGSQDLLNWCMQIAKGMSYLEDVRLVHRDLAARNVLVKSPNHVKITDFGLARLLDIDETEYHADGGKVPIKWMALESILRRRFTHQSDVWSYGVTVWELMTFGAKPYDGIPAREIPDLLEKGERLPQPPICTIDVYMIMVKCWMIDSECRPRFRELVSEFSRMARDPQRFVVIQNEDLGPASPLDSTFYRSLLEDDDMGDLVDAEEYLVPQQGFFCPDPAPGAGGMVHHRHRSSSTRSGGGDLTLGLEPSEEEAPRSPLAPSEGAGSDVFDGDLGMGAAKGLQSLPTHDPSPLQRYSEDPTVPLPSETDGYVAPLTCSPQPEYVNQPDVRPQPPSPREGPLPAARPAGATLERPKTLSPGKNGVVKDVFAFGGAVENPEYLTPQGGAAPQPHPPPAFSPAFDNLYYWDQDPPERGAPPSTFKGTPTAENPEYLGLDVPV
Briefly: EGF Receptor-HER2 chimeric receptor assay in whole cells (ELISA). Type of assay: cell-based. As to conditions: read-out: HER-2 kinase IC50. In outline:
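NIH3T3 cells overexpressing EGFR-extracellular/HER2-kinase chimera, seeded in 0.5% serum for ~40 h, were pretreated with compound (1% final DMSO) 2 h at 37 °C, then stimulated with 100 nM EGF for 5 min. Lysates captured on anti-EGFR plates; phosphotyrosine detected by anti-Ptyr/HRP ELISA at 410 nm as percent inhibition.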
(In general: ELISA stands for enzyme-linked immunosorbent assay.)
Turning to `COc1ccc(C=C2C(=O)Nc3cc(NC(C)=O)ccc32)cc1-c1cccc(NC(C)=O)c1` (mixture of isomers) [Example 63, N-[3-(3′-Acetylamino-6-methoxybiphenyl-3-ylmethylene)-2-oxo-2,3-dihydro-1H-indol-6-yl]-acetamide], the pIC50 is less than 4.00.
As for `O=C1Nc2ccc(F)cc2/C1=C\c1ccc2c(c1)CCO2` [Example 42, 3-(2,3-Dihydrobenzofuran-5-ylmethylene)-5-fluoro-1,3-dihydroindol-2-one], the figure is 4.32.
The figure for `COc1ccc(/C=C2/C(=O)Nc3ccc(Cl)cc32)cc1-c1cccs1` [Example 59, 5-chloro-3-(4-Methoxy-3-thiophen-2-ylbenzylidene)-1,3-dihydroindol-2-one] is less than 4.00; for `CNS(=O)(=O)c1ccc2c(c1)C(=Cc1[nH]c3ccccc3c1C)C(=O)N2` (racemic) [Example 154, 3-(3-Methyl-1H-indol-2-ylmethylene)-2-oxo-2,3-dihydro-1H-indole-5-sulfonic acid methylamide] it is less than 4.00.
For `COc1ccc(/C=C2/C(=O)Nc3ccccc32)cc1C(C)C` [Example 7, 3-(3-Isopropyl-4-methoxybenzylidene)-1,3-dihydroindol-2-one], the pIC50 is less than 4.00.
The figure for `COc1cc(C)c(/C=C2/C(=O)Nc3ncccc32)cc1C(C)C` [Example 45, 3-(5-Isopropyl-4-methoxy-2-methylbenzylidene)-1,3-dihydro-pyrrolo[2,3-b]pyridin-2-one] is 4.24; for `CC(=O)Nc1ccc2c(c1)NC(=O)/C2=C/c1ccc(OCCN2CCOCC2)c(-c2cccs2)c1` [Example 40, N-{3-[4-(2-Morpholin-4-ylethoxy)-3-thiophen-2-ylbenzylidene]-2-oxo-2,3-dihydro-1H-indol-6-yl}-acetamide] it is 4.44; for `COc1c(C)cc(/C=C2/C(=O)Nc3ncccc32)cc1C` [Example 56, 3-(4-Methoxy-3,5-dimethylbenzylidene)-1,3-dihydropyrrolo[2,3-b]pyridin-2-one] it is 4.02.
As for `COc1c(C(C)C)cc(/C=C2/C(=O)Nc3ccc(Br)cc32)cc1C(C)C` [Example 54, 5-Bromo-3-(3,5-diisopropyl-4-methoxybenzylidene)-1,3-dihydroindol-2-one], the figure is 4.07.
The figure for `COc1cc(/C=C2/C(=O)Nc3ccccc32)c(-c2cccs2)cc1OC` [Example 39, 3-(4,5-Dimethoxy-2-thiophen-2-ylbenzylidene)-1,3-dihydroindol-2-one] is 4.47.
As for `O=C1Nc2ccc(Br)cc2/C1=C/c1cc2ccccc2[nH]1` [Example 165, 5-Bromo-3-(1H-indol-2-ylmethylene)-1,3-dihydro-indol-2-one], the pIC50 is less than 4.00.
The figure for `COc1ccc(/C=C2/C(=O)Nc3ncccc32)cc1-c1ccccc1` [Example 71, 3-(6-Methoxybiphenyl-3-ylmethylene)-1,3-dihydropyrrolo[2,3-b]pyridin-2-one] is less than 4.00.
For `COc1c(C(C)C)cc(/C=C2\C(=O)Nc3cccc(C)c32)cc1C(C)C` [Example 53, 3-(3,5-Diisopropyl-4-methoxybenzylidene)-4-methyl-1,3-dihydroindol-2-one], the pIC50 is 4.09.
Turning to `CC(=O)Nc1ccc2c(c1)NC(=O)/C2=C/c1ccc(OCCN2CCOCC2)c(-c2ccsc2)c1` [Example 50, N-{3-[4-(2-Morpholin-4-ylethoxy)-3-thiophen-3-ylbenzylidene]-2-oxo-2,3-dihydro-1H-indol-6-yl}-acetamide], the pIC50 is 4.17.
In the case of `COc1ccc(/C=C2/C(=O)Nc3ccccc32)cc1-c1ccccc1` [Example 65, 3-(6-Methoxybiphenyl-3-ylmethylene)-1,3-dihydroindol-2-one], the pIC50 was less than 4.00.
As for `Cc1cc(CCC(=O)O)c(/C=C2\C(=O)Nc3ccc(Cl)cc32)[nH]1` [Example 111, 3-[2-(5-Chloro-2-oxo-1,2-dihydroindol-3-ylidenemethyl)-5-methyl-1H-pyrrol-3-yl]propionic acid], the figure is less than 4.00; as for `CC1(C)CCc2cc(/C=C3/C(=O)Nc4ccc(F)cc43)ccc2O1` [Example 23, 3-(2,2-Dimethylchroman-6-ylmethylene)-5-fluoro-1,3-dihydroindol-2-one], 4.48; as for `COc1c(C(C)C)cc(/C=C2/C(=O)Nc3cc(NC(C)=O)ccc32)cc1C(C)C` [Example 3, N-[3-(3,5-Diisopropyl-4-methoxybenzylidene)-2-oxo-2,3-dihydro-1H-indol-6-yl]-acetamide], 5.19.
As for `COc1ccc(/C=C2/C(=O)Nc3cc(NC(C)=O)ccc32)cc1-c1cccs1` [Example 31, N-[3-(4-Methoxy-3-thiophen-2-ylbenzylidene)-2-oxo-2,3-dihydro-1H-indol-6-yl]-acetamide], the figure is 4.89; as for `COc1ccc(/C=C2/C(=O)Nc3ncccc32)cc1C1CCCC1` [Example 47, 3-(3-Cyclopentyl-4-methoxybenzylidene)-1,3-dihydropyrrolo[2,3-b]pyridin-2-one], 4.22; as for `COc1c(C(C)C)cc(/C=C2/C(=O)Nc3cc(N)ccc32)cc1C(C)C` [Example 32, 6-Amino-3-(3,5-diisoprotyl-4-methoxy-benzylidene)-1,3-dihydroindol-2-one], 4.04.
For `COc1ccc(/C=C2/C(=O)Nc3ccc(Br)cc32)cc1-c1ccccc1` [Example 13, 5-Bromo-3-(6-methoxybiphenyl-3-ylmethylene)-1,3-dihydroindol-2-one], the pIC50 was less than 4.00.
Turning to `O=C1Nc2ccccc2/C1=C\c1ccc2c(c1)CCO2` [Example 66, 3-(2,3-Dihydrobenzofuran-5-ylmethylene)-1,3-dihydroindol-2-one], the pIC50 is less than 4.00.
As for `COc1c(C(C)C)cc(/C=C2/C(=O)Nc3cc(NC(=O)OC(C)(C)C)ccc32)cc1C(C)C` [Example 52, [3-(3,5-Diisopropyl-4-methoxybenzylidene)-2-oxo-2,3-dihydro-1H-indol-6-yl]-carbamic acid tert-butyl ester], the figure is 4.14.

The pIC50 is the negative decadic logarithm of the IC50, by convention in mol/L.
